Among the data in patent publication US8431597B2, “Benzimidazole derivatives” (Pfizer Inc., priority 2007, dated 2013) are inhibition values, retold here.

A word on the inhibition: it is the drop in the measured response relative to a control, in per cent.

Structures can show the parent of a compound that is named as a salt.

The target in the test is T1, Smoothened (SMO) (Mus musculus, UniProt P56726).
T1 construct: C3H10T1/2 cells (ATCC #CCL-226) were split and seeded; endogenous in cells; host or cells: C3H10T1/2 (ATCC #CCL-226)
T1 sequence (P56726 33-793): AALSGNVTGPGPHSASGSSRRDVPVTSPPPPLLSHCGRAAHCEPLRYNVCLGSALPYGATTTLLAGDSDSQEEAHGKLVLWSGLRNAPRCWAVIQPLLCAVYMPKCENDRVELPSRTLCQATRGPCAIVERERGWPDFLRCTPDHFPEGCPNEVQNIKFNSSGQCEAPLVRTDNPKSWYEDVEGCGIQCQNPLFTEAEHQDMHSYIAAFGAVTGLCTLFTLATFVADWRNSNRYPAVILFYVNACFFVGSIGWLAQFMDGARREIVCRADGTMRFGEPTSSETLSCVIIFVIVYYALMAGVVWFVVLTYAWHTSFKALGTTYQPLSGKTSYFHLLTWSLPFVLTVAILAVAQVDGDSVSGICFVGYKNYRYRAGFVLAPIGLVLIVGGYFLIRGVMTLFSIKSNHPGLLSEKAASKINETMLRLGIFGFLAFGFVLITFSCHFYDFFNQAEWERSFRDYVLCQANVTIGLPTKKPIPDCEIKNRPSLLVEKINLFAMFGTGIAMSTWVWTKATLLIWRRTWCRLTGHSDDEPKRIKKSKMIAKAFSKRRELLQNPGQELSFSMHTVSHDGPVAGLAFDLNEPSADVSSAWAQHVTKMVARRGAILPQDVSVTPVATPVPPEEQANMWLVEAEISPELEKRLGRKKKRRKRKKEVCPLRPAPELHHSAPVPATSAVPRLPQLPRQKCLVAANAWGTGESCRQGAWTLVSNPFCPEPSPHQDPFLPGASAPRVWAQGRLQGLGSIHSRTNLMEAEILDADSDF
Nature of the test: Smoothened (SMO)/Sonic Hedgehog (SHh) Transient Transcriptional Activation Assay (Gli-luciferase reporter in C3H10T1/2 cells). It counts as cell-based, murine. The following applies: C3H 10T1/2, 2 μM compound; transfected C3H10T1/2 cells, recombinant human SHh 250 ng/mL, 20 hours, luciferase readout; read-out: SMO CELL % INHIBITION @ 2 μM. How it is done: As noted above, the compounds of the invention are useful as inhibitors of SMO. • Methods for determining the in vitro activity of these compounds are described below: Smoothened (SMO)/Sonic Hedgehog (SHh) Transient Transcriptional Activation Assay
On Day 1, 2×10^6 C3H10T1/2 cells (ATCC #CCL-226) were split and seeded in 12 mL of growth medium Basal Medium Eagle (BME, Invitrogen #21010-046) supplemented with 2 mM L-glutamine (Invitrogen #25030-081), 0.1 units/mL penicillin and 0.1 μg/mL streptomycin (Invitrogen #15140-122), and 10% Fetal Bovine Serum (FBS, Invitrogen #16140-071) in a T-75 flask (Costar #3376). They were allowed to attach for 4 hours at 37° C., 5% CO2. The cells were then transfected using Fugene 6 (Roch #11 814 443 001) in the following reaction: 48 μL Fugene 6 and 745 μL Opti-MEM (Invitrogen #31985-070) were mixed and allowed to sit at room temperature for 5 minutes. 8 μg of pGL4.14/mGli(CS) DNA (10× murine Gli response elements and minimal CS promoter) and 0.5 μg of pEGFP DNA (Clontech) were added, gently mixed and incubated at room temperature for 20 minutes. This entire transfection mix was then added to the T-75 flask containing the cells. The cells were incubated at 37° C., 5% CO2 for 18-24 hours.
On Day 2, the transfected cells were trypsinized and seeded into white 96 well plates (Costar #3917) in 100 μL/well of growth medium at a concentration of 20,000 cells/well. The cells were allowed to recover for 4 hours before adding serum starvation medium Dulbecco's Modified Eagle Medium (DMEM, Invitrogen #21063-029) supplemented with 2 mM L-glutamine, 0.1 units/mL penicillin and 0.1 μg/mL streptomycin, and 0.5% Calf Serum (CS, Invitrogen #26170-043). The growth media was aspirated off, and the cells were rinsed with 100 μL of starvation media. 95 μL of starvation media was then added to each well. The cells were incubated for 20 hours at 37° C., 5% CO2.
On Day 3, cells were dosed with test compounds at a final concentration ranging from 2 μM to 2 nM. Immediately after dosing cells with compounds, recombinant human sonic hedgehog (SHh, R&D Systems #1845-SH) was add to a final concentration of 250 ng/mL. A 25 μg vial of SHh was reconstituted with 250 μL PBS/0.1% BSA to give a 100 ng/μL working stock. This working stock was then diluted 1:20 in starvation media. The transfected cells were incubated with compounds and SHh for 20 hours at 37° C., 5% CO2.
Luciferase assays were conducted on Day 4 using Dual-Glo Luciferase assay system (Promega #E2940) according to Promega's protocol. Briefly, Dual-Glo luciferase reagent was made up and 100 μL were added to each well of the 96 well plate containing media. Plates were shaken at room temperature for 10 minutes, and then read on TopCount (Perkin-Elmer). The luminescence was recorded.
Take `COc1ccc2[nH]c([C@H]3C[C@H](NC(=O)Nc4ccc(C(F)(F)F)nc4)CCN3C)nc2c1` [Example 62, 1-[(2R,4R)-2-(5-methoxy-1H-benzimidazol-2-yl)-1-methylpiperidin-4-yl]-3-[6-(trifluoromethyl)pyridin-3-yl]urea hydrochloride]: the inhibition at 2 µM was determined as 104%. With `CC(C)c1ccc(NC(=O)N[C@@H]2CCN(C)[C@@H](c3nc4ccccc4[nH]3)C2)cc1` [Example 53, 1-[(2R.4R)-2-(1H-benzimidazol-2-yl)-1-methylpiperidin-4-yl]-3-(4-isopropylphenyl)urea hydrochloride] the figure was 105%; with `CN1CC[C@@H](NC(=S)c2ccc3c(c2)OCCO3)C[C@@H]1c1nc2ccccc2[nH]1` [Example 140, N-[(2R,4R)-2-(1H-benzimidazol-2-yl)-1-methylpiperidin-4-yl]-2,3-dihydro-1,4-benzodioxine-6-carbothioamide hydrochloride], 107%; with `CN1CC[C@@H](NC(=O)c2ccc3c(c2)NC(=O)CO3)C[C@@H]1c1nc2ccccc2[nH]1` [Example 100, N-[(2R,4R)-2-(1H-benzimidazol-2-yl)-1-methylpiperidin-4-yl]-3-oxo-3,4-dihydro-2H-1,4-benzoxazine-6-carboxamide hydrochloride], 63.7%.

As to `CN1CC[C@@H](NC(=O)c2ccc3c(c2F)OCCO3)C[C@@H]1c1nc2ccccc2[nH]1` [Example 141, N-[(2R,4R)-2-(1H-benzimidazol-2-yl)-1-methylpiperidin-4-yl]-5-fluoro-2,3-dihydro-1,4-benzodioxine-6-carboxamide trifluoroacetate], the inhibition at 2 µM turned out to be 85.3%.

Consider `N#Cc1ccc(NC(=O)N[C@@H]2CCN(CCc3ccccc3)[C@@H](c3nc4ccccc4[nH]3)C2)cc1` [Example 98, 1-[(2R,4R)-2-(1H-benzimidazol-2-yl)-1-(2-phenyl-ethyl)piperidin-4-yl)-3-(4-cyanophenyl)urea], for which the inhibition at 2 µM was 74.5%.

On to `CN1CC[C@@H](NC(=O)c2cc3c(cc2Cl)OCCO3)C[C@@H]1c1nc2cc(Cl)ccc2[nH]1` [Example 148, 7-chloro-N-[(2R,4R)-2-(5-chloro-1H-benzimidazol-2-yl)-1-methylpiperidin-4-yl]-2,3-dihydro-1,4-benzodioxine-6-carboxamide triflouroacetate], for which the inhibition at 2 µM was 95%. With `CCN1CC[C@@H](NC(=O)Nc2ccc(C#N)cc2)C[C@@H]1c1nc2ccccc2[nH]1` [Example 46, 1-[(2R,4R)-2-(1H-benzimidazol-2-yl)-1-ethylpiperidin-4-yl]-3-(4-cyanophenyl)urea], the inhibition at 2 µM was determined as 105%. For `COc1ccc(NC(=O)N[C@@H]2CCN(C)[C@@H](c3nc4cc(C)ccc4[nH]3)C2)cn1` [Example 137, 1-{6-methoxypyridin-3-yl)-3-[(2R.4R)-1-methyl-2-(5-methyl-1H-benzimidazol-2-yl)piperidin-4-yl]urea hydrochloride] the value was 102%; for `CN1CC[C@@H](NC(=O)c2cc3c(cc2Cl)OCCO3)C[C@@H]1c1nc2ccccc2[nH]1` [Example 147, N-[(2R,4R)-2-(1H-benzimidazol-2-yl)-1-methylpiperidin-4-yl]-7-chloro-2,3-dihydro-1,4-benzodioxine-6-carboxamide triflouroacetate], 69.5%. For `COc1ccc(NC(=O)N[C@@H]2CCN(C)[C@@H](c3nc4cc(C)c(C)cc4[nH]3)C2)cn1` [Example 138, 1-[(2R,4R)-2-(5,6-dimethyl-1H-benzimidazol-2-yl)-1-methylpiperidin-4-yl]-3-(6-methoxypyridin-3-yl)urea hydrochloride] the value was 108%.

On to `CN(C)c1ccc2[nH]c([C@H]3C[C@H](NC(=O)c4ccc5c(c4)OCCO5)CCN3C)nc2c1` [Example 27, N-{(2R,4R)-2-[5-(dimethylamino)-1H-benzimidazol-2-yl]-1-methylpiperidin-4-yl}-2,3-dihydro-1,4-benzodioxine-6-carboxamide hydrochloride], for which the inhibition at 2 µM came to 108%.
